# Data taken from US20250339409A1, “USES OF PAN BET INHIBITORS” (VYNE THERAPEUTICS INC., priority 2021, published 2025).
# Tested on: back skin of healthy mice
# Assay: Tolerance assessment of BETi1 0.01% and 1.0% in healthy (non-induced) mice
# Assay type: in vivo
# Conditions: for Modified PASI Mean score values / PASI Mean score values: female, Balb/c
# Experimental: Thirty-six (36) female Balb/c mice are weighed and randomly divided into 9 groups (n=4) according to body weight on D1. For mice of native group 1 and tolerance groups 8 and 9, no induction of psoriasis is performed between D1 and D13. Psoriasis is induced in groups 2 to 7 by once daily topical application for 13 days (from day 1 to day 13) of 65 mg of Aldara™ cream (5.0% imiquimod) onto the shaved and epilated back of mice. Before the first treatment, a second randomization of mice of the 6 imiquimod-induced psoriasis groups is performed according to the severity of psoriasis (PASI), and also the body weight of mice. Starting on day 7 and until day 13, 100 mg of test formulations […] and 65 mg of vehicle (groups 1 and […]) are topically administered once daily for 7 consecutive days onto the shaved back skin of mice. Several measurements are taken during treatment period from day 7 to day 14: psoriasis index (PASI), body weight, use of enrichment and mortality. At the end of treatment period, TEWL is assessed, and blood and skin samples are collected. Histological analysis of skin samples is used for microscopic scoring of psoriasis and the determination of the thickness of parakeratosis and epidermis and blood analysis is used for assessing the level of proinflammatory biomarkers (cytokines assays). The effect of treatment of psoriasis induced mice with BETi formulations at the four dose levels are compared with Dermoval® cream containing 0.05% clobetasol propionate (reference) and vehicle (positive control) and also with healthy mice treated with vehicle (negative control).
# The tolerance assessment to treatments with 0.01% and 1.0% BETi is performed daily during the treatment period (D7 to D13) as well as on the day mice are sacrifice (D14), and takes into account the following 5 parameters:
# The presence of erythema on the skin with the following scoring grid: • 0=no or no more erythema on the skin, • 1=weak erythema on the skin, • 2=moderate erythema on the skin, • 3=important erythema on the skin, • 4=severe erythema on the skin.
# The presence of induration of the skin with the following scoring grid: • 0=no or no more induration of the skin, • 1=weak induration of the skin, • 2=moderate induration of the skin, • 3=important induration of the skin, • 4=severe induration of the skin.
# The presence of ulceration of the skin with the following scoring grid: • 0=no or no more ulceration of the skin, • 1=weak ulceration of the skin, • 2=moderate ulceration of the skin, • 3=important ulceration of the skin, • 4=severe ulceration of the skin.
# The presence of necrosis of the skin with the following scoring grid: • 0=no or no more necrosis of the skin, • 1=weak necrosis of the skin, • 2=moderate necrosis of the skin, • 3=important necrosis of the skin, • 4=severe necrosis of the skin.
# The presence of peeling of the skin with the following scoring grid: • 0=no or no more peeling of the skin, • 1=weak peeling of the skin, • 2=moderate peeling of the skin, • 3=important peeling of the skin, • 4=severe peeling of the skin.
# The investigation addressed, amongst other things, the effect of the different BETi1 concentrations (0.001%, 0.01%, 0.1% and 1.0%) on various parameters. Tolerance was tested at two BETi1 concentrations (0.01% and 1%) in healthy mice.
compound,measurement,setting,value
Cn1cc(-c2cccc(O)c2Oc2ccccc2)c2cc[nH]c2c1=O [BETi1],"Body weight, individual mouse","Tolerance, healthy mice, D 1, listed as BETi1 1.0%",18.49
same,Mean body weights,"Tolerance, healthy mice, D 11, listed as BETi1 1.0%",18.97
same,"Body weight, individual mouse","Tolerance, healthy mice, D 14, listed as BETi1 1.0%",19.58
same,Modified PASI Mean score values,"mouse, in vivo",0.00
same,Modified PASI Mean score values,"mouse, in vivo, 1 study day",0.00
same,PASI Mean score values,"mouse, in vivo, 2 study day",0.00
same,PASI Mean score values,"mouse, in vivo, 3 study day",0.00
same,PASI Mean score values,"mouse, in vivo, 4 study day",0.00
same,PASI Mean score values,"mouse, in vivo, 5 study day",0.00
same,PASI Mean score values,"mouse, in vivo, 6 study day",0.00
same,PASI Mean score values,"mouse, in vivo, 7 study day",0.00
same,PASI Mean score values,"mouse, in vivo, 8 study day",0.00
same,Modified PASI Mean score values,"mouse, in vivo, 9 study day",0.00
same,PASI Mean score values,"mouse, in vivo, 9 study day",0.00
same,Modified PASI Mean score values,"mouse, in vivo, 10 study day",0.00
same,PASI Mean score values,"mouse, in vivo, 10 study day",0.00
same,Modified PASI Mean score values,"mouse, in vivo, 11 study day",0.00
same,PASI Mean score values,"mouse, in vivo, 11 study day",0.00
same,Modified PASI Mean score values,"mouse, in vivo, 12 study day",0.00
same,PASI Mean score values,"mouse, in vivo, 12 study day",0.00
same,Modified PASI Mean score values,"mouse, in vivo, 13 study day",0.00
same,PASI Mean score values,"mouse, in vivo, 13 study day",0.00
same,Modified PASI Mean score values,"mouse, in vivo, 14 study day",0.00
same,PASI Mean score values,"mouse, in vivo, 14 study day",0.00
same,local skin reaction to treatment,"mouse, in vivo",did not experience any noticeable local skin reaction
